Data on one compound can be found in patent publication US20100286260A1, “MILNACIPRAN FORMULATIONS” (priority 2009, published 2010).

SMILES strings stand for the structures.

A short description of series [1]: Conversion to cyclic degradation product F1612 in 0.1 M pH 9.0 buffer at 50° C. The series is classed as physicochemical. Conditions: 50° C. and pH 9.0. On the procedure:
Milnacipran hydrochloride was exposed to 0.1 M pH 9.0 buffer (glycine-NaOH) at 50° C. in a closed glass flask for several days.

Series [2] is classed as physicochemical. The source says: (§1) Milnacipran can be easily processed in solvent state with conventional binder such as Povidone. However, in aqueous state the milnacipran has some unusual properties which present difficulties in drug layering approach. […] In exemplary embodiments, the PEG functions as a co-binder, anti-tacking agent, plasticizer to HPMC and as an eraser to the drug's deliquescent property.

A short description of another series: Deliquescence. Conditions: room temperature. The class given is physicochemical.
From the text: as §1

The next series deals with uptake of dopamine. Conditions: cited from earlier work.

`CCN(CC)C(=O)C1(c2ccccc2)CC1CN` (stereo not shown) [Milnacipran, milnacipran]: the “formation of the cyclic degradation product” value in series [1] is “rapid formation”. Besides, the solubility in water entry in series [2] was “highly soluble”. Also, the “deliquescent at RH” value in “Deliquescence” is 75-80 % RH. The “effect on the uptake of dopamine” value with uptake of dopamine is listed as “does not affect”.
